The text below walks through data of patent US9751854B2 (Millennium Pharmaceuticals, Inc., priority 2014, dated 2017).

Broadly, the IC50 is the concentration at which inhibition is half-maximal.

human VPS34, sequence (Q8NEB9 whole entry): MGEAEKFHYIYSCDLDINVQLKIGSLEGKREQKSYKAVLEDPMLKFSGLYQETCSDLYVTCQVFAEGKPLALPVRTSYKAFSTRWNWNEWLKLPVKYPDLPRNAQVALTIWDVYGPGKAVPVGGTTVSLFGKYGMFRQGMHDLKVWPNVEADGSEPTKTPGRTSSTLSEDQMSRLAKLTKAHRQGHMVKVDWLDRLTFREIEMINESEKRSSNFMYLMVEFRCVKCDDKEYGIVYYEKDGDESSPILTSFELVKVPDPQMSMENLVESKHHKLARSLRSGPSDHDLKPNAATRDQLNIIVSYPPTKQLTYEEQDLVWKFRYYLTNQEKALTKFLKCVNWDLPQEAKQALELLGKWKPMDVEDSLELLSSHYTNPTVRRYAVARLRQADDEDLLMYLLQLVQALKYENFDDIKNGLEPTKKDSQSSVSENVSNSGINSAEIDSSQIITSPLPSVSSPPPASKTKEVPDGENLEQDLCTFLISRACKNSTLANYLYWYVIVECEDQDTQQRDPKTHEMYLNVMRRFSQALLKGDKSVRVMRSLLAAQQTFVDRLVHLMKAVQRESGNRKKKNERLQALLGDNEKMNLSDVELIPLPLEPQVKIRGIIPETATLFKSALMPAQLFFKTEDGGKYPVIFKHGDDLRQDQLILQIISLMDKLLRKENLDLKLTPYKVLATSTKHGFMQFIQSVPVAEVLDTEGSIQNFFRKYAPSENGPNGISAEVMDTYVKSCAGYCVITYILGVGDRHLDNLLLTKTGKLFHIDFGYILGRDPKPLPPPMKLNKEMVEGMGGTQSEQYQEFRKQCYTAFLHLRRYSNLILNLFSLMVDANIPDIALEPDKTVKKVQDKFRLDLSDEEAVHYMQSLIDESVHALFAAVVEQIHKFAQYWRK

The first experiment concerns the target human VPS34 (Homo sapiens (Human), UniProt Q8NEB9). Put plainly: Human VPS34 enzyme assay (Adapta TR-FRET ADP detection).
Conditions: not given
The arrangement: Percent Inhibition: dose or concentration left out as unconfirmed. The format is biochemical. A general note: In TR-FRET formats the signal depends on donor and acceptor labels being close together.
For `Cc1c(-c2ccnc(N)c2)cnc(Cl)c1NS(=O)(=O)c1ccc(F)cc1F` [Compound I-287, N′-(2′-amino-6-chloro-4-methyl-3,4′-bipyridin-5-yl)-2,4-difluorobenzenesulfonamide], the “Percent Inhibition” value turned out to be 91%.

Staying with this experiment, now noted: IC50 range class.
The compound `CC(=O)Nc1cc(-c2cnc(Cl)c(C(=O)N(C)C)c2)ccn1` [Compound I-213, 2′-acetamido-6-chloro-N,N-dimethyl-3,4′-bipyridine-5-carboxamide] yielded an IC50 of 50 to 100 nM.
Regarding `CC(=O)Nc1cc(-c2cncc(S(=O)(=O)NC(C)(C)C)c2C)ccn1` [Compound I-462, N-(5-(N-(tert-butyl)sulfamoyl)-4-methyl-[3,4′-bipyridin]-2′-yl)acetamide], the IC50 is more than 100 nM.
On the same count and under the same terms, with `CC(=O)Nc1cc(-c2cnc(N)c(S(=O)(=O)C(C)C)c2)ccn1` [Compound I-175, N-[6-amino-5-(isopropylsulfonyl)-3,4′-bipyridin-2′-yl]acetamide] the figure was 10 to 50 nM; with `CC(=O)Nc1cc(-c2cnc(Cl)c(NS(=O)(=O)c3ccc(Cl)cc3F)c2C)ccn1` [Compound I-399, N-(6-chloro-5-{[(4-chloro-2-fluorophenyl)sulfonyl]amino}-4-methyl-3,4′-bipyridin-2′-yl)acetamide], 10 to 50 nM; with `CC(=O)Nc1cc(-c2cnc(N)c(C(=O)NC34CC(C3)C4)c2)ccn1` [Compound I-187, 2′-acetamido-6-amino-N-(bicyclo[1.1.1]pent-1-yl)-3,4′-bipyridine-5-carboxamide], less than 10 nM.
On the same count and under the same terms, then `CC(=O)Nc1cc(-c2cnc(N)c(S(=O)(=O)NC3CCCCC3)c2)ccn1` [Compound I-101, N-[6-amino-5-(cyclohexylsulfamoyl)-3,4′-bipyridin-2′-yl]acetamide], with less than 10 nM; and `Cc1nccc(Nc2cc(-c3cncc(C(C)OCc4ccccn4)c3)ccn2)n1` (stereo not shown) [Compound I-349, N-(2-methylpyrimidin-4-yl)-5-[1-(pyridin-2-ylmethoxy)ethyl]-3,4′-bipyridin-2′-amine], with 10 to 50 nM; and `Cc1c(-c2ccnc(Nc3ccnc(C4CC4)n3)c2)cnc(Cl)c1N` [Compound I-355, 6-chloro-N-2-′-(2-cyclopropylpyrimidin-4-yl)-4-methyl-3,4′-bipyridine-2′,5-diamine], with 10 to 50 nM.
On the same count and under the same terms, with `CC(=O)Nc1cc(-c2cncc(/C=C/C(=O)c3ccc(F)cc3)c2)ccn1` [Compound I-188, N-{5-[(1E)-3-(4-fluorophenyl)-3-oxoprop-1-en-1-yl]-3,4′-bipyridin-2′-yl}acetamide] the figure was 50 to 100 nM.
Take `CNc1ncc(-c2ccnc(NC(C)=O)c2)cc1C(=O)NC12CC(C1)C2` [Compound I-160, 2′-acetamido-N-(bicyclo[1.1.1]pent-1-yl)-6-(methylamino)-3,4′-bipyridine-5-carboxamide]: the 50% inhibitory concentration (IC50) lay in the range of 10 to 50 nM.
Same read-out and setting: with `CC(=O)Nc1cc(-c2cnc(N)c(S(=O)(=O)N3CCCC3)c2)ccn1` [Compound I-87, N-[6-amino-5-(pyrrolidin-1-ylsulfonyl)-3,4′-bipyridin-2′-yl]acetamide] the figure was less than 10 nM; with `CC(=O)Nc1cc(-c2cnc(C)c(NS(=O)(=O)c3ccc(F)cc3Cl)c2)ccn1` [Compound I-206, N-(5-{[(2-chloro-4-fluorophenyl)sulfonyl]amino}-6-methyl-3,4′-bipyridin-2′-yl)acetamide], less than 10 nM; with `CC(=O)Nc1cc(-c2cnc3ncn(CC4CC4)c3c2)ccn1` [Compound I-135, N-{4-[1-(cyclopropylmethyl)-1H-imidazo[4,5-b]pyridin-6-yl]pyridin-2-yl}acetamide], more than 100 nM.
Same read-out and setting: with `Cc1ncc(-c2ccnc(Nc3ccc(C#N)cn3)c2)cc1NS(=O)(=O)c1ccc(F)cc1F` [Compound I-228, N-{2′-[(5-cyanopyridin-2-yl)amino]-6-methyl-3,4′-bipyridin-5-yl}-2,4-difluorobenzenesulfonamide] the figure was less than 10 nM.
Same read-out and setting: with `CC(=O)Nc1cc(-c2cncc(C=O)c2)ccn1` [Compound I-184, N-(5-formyl-3,4′-bipyridin-2′-yl)acetamide] the figure was more than 100 nM; with `Cc1c(-c2ccnc(Nc3ccnc(-c4ccccc4)n3)c2)cnc(Cl)c1NS(=O)(=O)c1ccc(F)cc1F` [Compound I-264, N-{6-chloro-4-methyl-2′-[(2-phenylpyrimidin-4-yl)amino]-3,4′-bipyridin-5-yl}-2,4-difluorobenzenesulfonamide], less than 10 nM; with `CNc1ncc(-c2ccnc(NC(C)=O)c2)cc1S(=O)(=O)N(C(C)C)C(C)C` [Compound I-173, N-[5-(diisopropylsulfamoyl)-6-(methylamino)-3,4′-bipyridin-2′-yl]acetamide], less than 10 nM.
Compound `Cc1nccc(Nc2cc(-c3cnc(C)c(Oc4ccccc4)c3)ccn2)n1` [Compound I-475, 6-methyl-N-(2-methylpyrimidin-4-yl)-5-phenoxy-3,4′-bipyridin-2′-amine] gave an IC50 of 10 to 50 nM.
Same read-out and setting: with `CC(=O)Nc1cc(-c2cnc(N)c(S(=O)(=O)Cc3ccc(F)cc3F)c2)ccn1` [Compound I-138, N-[6-amino-5-[(2,4-difluorobenzyl)sulfonyl]-3,4′-bipyridin-2′-yl]acetamide] the figure was 10 to 50 nM; with `Cc1nccc(Nc2cc(-c3cnc(O)c(S(=O)(=O)NC4CCC4)c3)ccn2)n1` [Compound I-279, N-cyclobutyl-6-hydroxy-2′-[(2-methylpyrimidin-4-yl)amino]3,4′-bipyridine-5-sulfonamide], 10 to 50 nM; with `Cc1ccc2ccc(Nc3cc(-c4cnc(C)c(NS(=O)(=O)c5ccc(F)cc5F)c4)ccn3)nc2n1` [Compound I-235, 2,4-difluoro-N-{6-methyl-2′-[(7-methyl-1,8-naphthyridin-2-yl)amino]-3,4′-bipyridin-5-yl}benzenesulfonamide], 10 to 50 nM.
On the same count and under the same terms, then `Cc1nccc(Nc2cc(-c3cnc(Cl)c(N)c3C)ccn2)n1` [Compound I-226, 6-chloro-4-methyl-N-2′-(2-methylpyrimidin-4-yl)-3,4′-bipyridine-2′,5-diamine], with 10 to 50 nM.
As to `CNc1ncc(-c2ccnc(NC(C)=O)c2)cc1N1CCCS1(=O)=O` [Compound I-132, N-[5-(1,1-dioxidoisothiazolidin-2-yl)-6-(methylamino)-3,4′-bipyridin-2′-yl]acetamide], the IC50 is less than 10 nM.
On the same count and under the same terms, with `Cc1nccc(Nc2cc(-c3cnc(C)c(NC(=O)c4ccc(F)cc4F)c3)ccn2)n1` [Compound I-249, 2,4-difluoro-N-{6-methyl-2′-[(2-methylpyrimidin-4-yl)amino]-3,4′-bipyridin-5-yl}benzamide] the figure was 50 to 100 nM.
Compound `CC(=O)Nc1cc(-c2cnc3ccn(S(C)(=O)=O)c3c2)ccn1` [Compound I-33, N-{4-[1-(methylsulfonyl)-1H-pyrrolo[3,2-b]pyridin-6-yl]pyridin-2-yl}acetamide] displayed an IC50 of 10 to 50 nM.
With `Cc1nccc(Nc2cc(-c3cnc(Cl)c(N(C)C)c3C)ccn2)n1` [Compound I-314, 6-chloro-N5,N5,4-trimethyl-N2′-(2-methylpyrimidin-4-yl)-3,4′-bipyridine-2′,5-diamine], the IC50 fell in the range of 10 to 50 nM.
Still for that read-out and setting: with `CC(=O)Nc1cc(-c2cnc(Cl)c(NS(=O)(=O)c3ccc(C#N)cc3Cl)c2C)ccn1` [Compound I-362, N-(6-chloro-5-{[(2-chloro-4-cyanophenyl)sulfonyl]amino}-4-methyl-3,4′-bipyridin-2′-yl)acetamide] the figure was 10 to 50 nM.
Still for that read-out and setting: then `COC(=O)Nc1cc(-c2cnc(N)c(C(=O)N(C)C)c2)ccn1` [Compound I-55, methyl [6-amino-5-(dimethylcarbamoyl)-3,4′-bipyridin-2′-yl]carbamate], with less than 10 nM; and `Cc1c(-c2ccnc(N)c2)cnc(Cl)c1NS(=O)(=O)c1ccc(F)cc1F` [Compound I-287, N′-(2′-amino-6-chloro-4-methyl-3,4′-bipyridin-5-yl)-2,4-difluorobenzenesulfonamide], with more than 100 nM; and `CC(=O)Nc1cc(-c2cnc(C)c(S(=O)(=O)NC34CC(C3)C4)c2)ccn1` [Compound I-418, N-[5-(bicyclo[1.1.1]pent-1-ylsulfamoyl)-6-methyl-3,4′-bipyridin-2′-yl]acetamide], with 10 to 50 nM.
On the same count and under the same terms, then `CC(=O)Nc1cc(-c2cncc(S(=O)(=O)N3CCC3)c2)ccn1` [Compound I-474, N-[5-(azetidin-1-ylsulfonyl)-3,4′-bipyridin-2′-yl]acetamide], with 10 to 50 nM; and `CCOC(=O)Nc1cc(-c2cnc(C)c(NS(=O)(=O)c3ccc(Cl)cc3F)c2)ccn1` [Compound I-456, ethyl (5-{[(4-chloro-2-fluorophenyl)sulfonyl]amino}-6-methyl-3,4′-bipyridin-2′-yl}carbamate], with less than 10 nM.
In turn, `CC(=O)Nc1cc(-c2cnc(N)c(C(=O)N3CCc4ccccc43)c2)ccn1` [Compound I-71, N-[6-amino-5-(2,3-dihydro-1H-indol-1-ylcarbonyl)-3,4′-bipyridin-2′-yl]acetamide] registered an IC50 of less than 10 nM.
With `Cc1nccc(Nc2cc(-c3cc(NS(=O)(=O)c4ccc(F)cc4F)c4ccnn4c3)ccn2)n1` [Compound I-486, 2,4-difluoro-N-(6-{2-[(2-methylpyrimidin-4-yl)amino]pyridin-4-yl}pyrazolo[1,5-a]pyridin-4-yl)benzenesulfonamide], the IC50 is less than 10 nM.
On to `COc1nccc(Nc2cc(-c3cncc(C(=O)N(C)C45CC(C4)C5)c3)ccn2)n1` [Compound I-245, N-(bicyclo[1.1.1]pent-1-yl)-2′-[(2-methoxypyrimidin-4-yl)amino]-N-methyl-3,4′-bipyridine-5-carboxamide], for which the IC50 is 10 to 50 nM.
Same read-out and setting: then `CNc1ncc(-c2ccnc(NC(C)=O)c2)cc1N(CC1CC1)S(C)(=O)=O` [Compound I-141], with less than 10 nM.
The same measure, in the same setting: then `Cc1nccc(Nc2cc(-c3cnc(C)c(C(=O)O)c3)ccn2)n1` [Compound I-253, 6-methyl-2′-((2-methylpyrimidin-4-yl)amino)-[3,4′-bipyridine]-5-carboxylic acid], with 10 to 50 nM; and `Cc1ncc(-c2ccnc(NC(=O)OCC3(C)COC3)c2)cc1NS(=O)(=O)c1ccc(F)cc1F` [Compound I-324, (3-methyloxetan-3-yl)methyl (5-{[(2,4-difluorophenyl)sulfonyl]amino}-6-methyl-3,4′-bipyridin-2′-yl)carbamate], with 10 to 50 nM; and `CC(=O)Nc1cc(-c2cnc(C)c(NS(=O)(=O)c3ccccc3Cl)c2)ccn1` [Compound I-109, N-(5-{[(2-chlorophenyl)sulfonyl]amino]-6-methyl-3,4′-bipyridin-2′-yl)acetamide], with less than 10 nM.
